Values joined by “and” are separate entries in the source; they are usually repeats but may differ in a detail not shown here. Equal values may be shown once. Read-outs that look alike come from different tables or passages of the source.
Tests used:
[1] = test system: M. tuberculosis H37Rv; type: cell-based, Mycobacterium tuberculosis; conditions: for CFU/ml (average) / CFU/ml, single values / Intracellular M. tuberculosis, % (Drug Free = 100.0): Fig 3A, H37Rv
[2] = test system: XDR M. tuberculosis; type: cell-based, Mycobacterium tuberculosis
[3] = test system: M. tuberculosis H37Rv; type: in vivo, BALB/c mice; conditions: for Efficacy in BALB/C mouse model of pulmonary tuberculosis, Average: Fig 4A
[4] = test system: M. tuberculosis H37Rv; type: in vivo, BALB/c mice; set-up: Efficacy in BALB/C mouse model of pulmonary tuberculosis, Average / Efficacy in BALB/C mouse model of pulmonary tuberculosis, values of mice 1-6: unit not given here; conditions: Fig 4C
[5] = type: in vivo, Crl:CD SD rats; conditions: single oral dose up to 2,000 mg/kg, SD rats, 2 weeks
Method: Toxicity studies were conducted at Biotoxtech (Korea) under review and approval from IACUC (170842, 180144, 170889) of Biotoxtech. All animals used in the toxicity test were purchased from OrientBio (Korea).
For acute toxicity study with a single oral administration, 6-week-old Crl:CD SD rats were used. For PP1S, a total of 8 groups (n = 4 rats/group) were used (0, 500, 1,000, and 2,000 mg/kg for females and males, respectively). For PP2S, a total of 4 groups (n = 5 rats/group) were used (0 and 2,000 mg/kg for females and males, respectively). […] Corn oil (Sigma, USA) was used as the vehicle. Control animals were treated only with the same volume of the vehicle.

[6] = Acute oral toxicity test in mice; type: in vivo, BALB/c mice; conditions: single oral, 5 mice; for Deaths of mice, Days after dosing 0: day 0; for Deaths of mice, Days after dosing 1: day 1; for Deaths of mice, Days after dosing 2: day 2; for Deaths of mice, Days after dosing 3: day 3; for Deaths of mice, Days after dosing 4: day 4; for Deaths of mice, Days after dosing 5: day 5; for Deaths of mice, Days after dosing 6: day 6; for Deaths of mice, Days after dosing 7: day 7; for Deaths of mice, Days after dosing 8: day 8; for Deaths of mice, Days after dosing 9: day 9; for Deaths of mice, Days after dosing 10: day 10; for Deaths of mice, Days after dosing 11: day 11; for Deaths of mice, Days after dosing 12: day 12; for Deaths of mice, Days after dosing 13: day 13; for Deaths of mice, Days after dosing 14: day 14
Method: This experiment was conducted in a toxicity test at Soonchunhyang University's Animal Biological Safety Level 2 (ABSL-2) facility. The study protocol was reviewed and approved by Soonchunhyang University Animal Ethics Committee. Six-week-old female BALB/c were purchased from Koatech (Pyeongtaek, Korea) and five mice per group were tested. Drugs were orally administered once using a zonde and observed for two weeks. Corn oil (Sigma, USA) was used as the vehicle.

COC(=O)[C@@H]1CCC(=O)N1Cc1cc2ccc(OC)cc2c2cc(OC)c(OC)cc12 [PP1S, (S)-N-[(2,3,6-Trimethoxy-10-phenanthryl)methyl]-pyroglutamic acid methyl ester]
CFU/ml (average) ([1]; drug conc. 1.6): 26333 CFU/ml
CFU/ml, single values ([1]; drug conc. 1.6): 26400 CFU/ml and 26700 CFU/ml and 25900 CFU/ml
Intracellular M. tuberculosis, % (Drug Free = 100.0) ([1]; drug conc. 1.6): 78.3%
CFU/ml (average) ([1]; drug conc. 3.1): 21190 CFU/ml
CFU/ml, single values ([1]; drug conc. 3.1): 20900 CFU/ml and 22200 CFU/ml and 20470 CFU/ml
Intracellular M. tuberculosis, % (Drug Free = 100.0) ([1]; drug conc. 3.1): 63.0%
CFU/ml (average) ([1]; drug conc. 6.3): 15203 CFU/ml
CFU/ml, single values ([1]; drug conc. 6.3): 15200 CFU/ml and 14100 CFU/ml and 16310 CFU/ml
Intracellular M. tuberculosis, % (Drug Free = 100.0) ([1]; drug conc. 6.3): 45.2%
CFU/ml (average) ([1]; drug conc. 12.5): 8003 CFU/ml
CFU/ml, single values ([1]; drug conc. 12.5): 8000 CFU/ml and 7500 CFU/ml and 8510 CFU/ml
Intracellular M. tuberculosis, % (Drug Free = 100.0) ([1]; drug conc. 12.5): 23.8%
CFU/ml (average) ([1]; drug conc. 25): 707 CFU/ml
Intracellular M. tuberculosis, % (Drug Free = 100.0) ([1]; drug conc. 25): 2.1%
growth of M. tuberculosis in macrophages (CFU) ([1]; H37Rv in Raw 264.7 cells, 3 days, concentration-dependent): significantly inhibited the growth
growth of M. tuberculosis in macrophages (CFU) [2]: significantly inhibited the growth
Efficacy in BALB/C mouse model of pulmonary tuberculosis, Average ([3]; group dose 15, 6 mice): 4150
Efficacy in BALB/C mouse model of pulmonary tuberculosis, Average ([3]; group dose 30, 6 mice): 2508
reduction of bacterial load in lungs compared to drug-free group ([3]; mouse, in vivo): more than 90%
granulomatous lesions in lung sections (HE staining) ([3]; mouse, in vivo, po): limited number of small granulomatous lesions
Efficacy in BALB/C mouse model of pulmonary tuberculosis, Average ([4]; group dose 30, 6 mice): 2683333
Efficacy in BALB/C mouse model of pulmonary tuberculosis, Average ([4]; group dose 100, 6 mice): 1028333
change in body weight compared to control group [5]: no significant change
clinical symptoms and death [5]: not observed
Deaths of mice, Days after dosing 0 ([6]; Dose 500 mg/kg): 0
Deaths of mice, Days after dosing 1 ([6]; Dose 500 mg/kg): 0
Deaths of mice, Days after dosing 2 ([6]; Dose 500 mg/kg): 0
Deaths of mice, Days after dosing 3 ([6]; Dose 500 mg/kg): 0
Deaths of mice, Days after dosing 4 ([6]; Dose 500 mg/kg): 0
Deaths of mice, Days after dosing 5 ([6]; Dose 500 mg/kg): 0
Deaths of mice, Days after dosing 6 ([6]; Dose 500 mg/kg): 0
Deaths of mice, Days after dosing 7 ([6]; Dose 500 mg/kg): 0
Deaths of mice, Days after dosing 8 ([6]; Dose 500 mg/kg): 0
Deaths of mice, Days after dosing 9 ([6]; Dose 500 mg/kg): 0
Deaths of mice, Days after dosing 10 ([6]; Dose 500 mg/kg): 0
Deaths of mice, Days after dosing 11 ([6]; Dose 500 mg/kg): 0
Deaths of mice, Days after dosing 12 ([6]; Dose 500 mg/kg): 0
Deaths of mice, Days after dosing 13 ([6]; Dose 500 mg/kg): 0
Deaths of mice, Days after dosing 14 ([6]; Dose 500 mg/kg): 0
Deaths of mice, Days after dosing 0 ([6]; Dose 1000 mg/kg): 0
Deaths of mice, Days after dosing 1 ([6]; Dose 1000 mg/kg): 0
Deaths of mice, Days after dosing 2 ([6]; Dose 1000 mg/kg): 0
Deaths of mice, Days after dosing 3 ([6]; Dose 1000 mg/kg): 0
Deaths of mice, Days after dosing 4 ([6]; Dose 1000 mg/kg): 0
Deaths of mice, Days after dosing 5 ([6]; Dose 1000 mg/kg): 0
Deaths of mice, Days after dosing 6 ([6]; Dose 1000 mg/kg): 0
Deaths of mice, Days after dosing 7 ([6]; Dose 1000 mg/kg): 0
Deaths of mice, Days after dosing 8 ([6]; Dose 1000 mg/kg): 0
Deaths of mice, Days after dosing 9 ([6]; Dose 1000 mg/kg): 0
Deaths of mice, Days after dosing 10 ([6]; Dose 1000 mg/kg): 0
Deaths of mice, Days after dosing 11 ([6]; Dose 1000 mg/kg): 0
Deaths of mice, Days after dosing 12 ([6]; Dose 1000 mg/kg): 0
Deaths of mice, Days after dosing 13 ([6]; Dose 1000 mg/kg): 0
Deaths of mice, Days after dosing 14 ([6]; Dose 1000 mg/kg): 0
Deaths of mice, Days after dosing 0 ([6]; Dose 2000 mg/kg): 0
Deaths of mice, Days after dosing 1 ([6]; Dose 2000 mg/kg): 0
Deaths of mice, Days after dosing 2 ([6]; Dose 2000 mg/kg): 0
Deaths of mice, Days after dosing 3 ([6]; Dose 2000 mg/kg): 0
Deaths of mice, Days after dosing 4 ([6]; Dose 2000 mg/kg): 0
Deaths of mice, Days after dosing 5 ([6]; Dose 2000 mg/kg): 0
Deaths of mice, Days after dosing 6 ([6]; Dose 2000 mg/kg): 0
Deaths of mice, Days after dosing 7 ([6]; Dose 2000 mg/kg): 0
Deaths of mice, Days after dosing 8 ([6]; Dose 2000 mg/kg): 0
Deaths of mice, Days after dosing 9 ([6]; Dose 2000 mg/kg): 0
Deaths of mice, Days after dosing 10 ([6]; Dose 2000 mg/kg): 0
Deaths of mice, Days after dosing 11 ([6]; Dose 2000 mg/kg): 0
Deaths of mice, Days after dosing 12 ([6]; Dose 2000 mg/kg): 0
Deaths of mice, Days after dosing 13 ([6]; Dose 2000 mg/kg): 0
Deaths of mice, Days after dosing 14 ([6]; Dose 2000 mg/kg): 0

From PMC9154192 (PLoS Biology, 2022)
